According to patent US9718840B2, “Condensed 5-oxazolidinone derivative” (SUMITOMO DAINIPPON PHARMA CO., LTD., priority 2014, dated 2017):

How the values were obtained:
[1] = Ester metabolism stability test: metabolite identification by LC-MS
Source text: The metabolites were identified using LC (LC-Nexera X2 manufactured by Shimadzu Corp.)-MS (API4000 manufactured by AB Sciex Pte Ltd.).

[2] = Ester metabolism stability test: stability in human liver; assay type: in vitro ADME; settings: 37° C., 20 minutes, with NADPH
Experimental: A reaction solution containing 5 μL of human liver S9 (manufactured by Sekisui XenoTech, LLC, 20 mg/mL) mixed with 20 μL of 500 mmol/L Kpi (pH 7.4), 40 μL of a 5 mmol/L aqueous solution of NADPH (manufactured by Oriental Yeast Co., Ltd.), and 133 μL of ion-exchange water was added to 2 μL of a DMSO solution containing a 100 μmol/L test substance, and the mixture was incubated at 37° C. for 20 minutes. After the incubation, the metabolic reaction was terminated by the addition of 600 μL of acetonitrile.

human plasma = experiment: Ester metabolism stability test: stability in human plasma; assay type: in vitro ADME; settings: 37° C., 20 minutes
Experimental: 198 μL of human plasma (manufactured by Cosmo Bio Inc.) was added to 2 μL of a DMSO solution containing a 100 μmol/L test substance, and the mixture was incubated at 37° C. for 20 minutes. After the incubation, the metabolic reaction was terminated by the addition of 600 μL of acetonitrile.

[3] = metabolites identified using LC-MS

Row | Compound | Metabolite formed (conversion by metabolism) ([1]; human, 20 min, 1 μmol/L) | Residual rate (%) Human liver S9 [2] [%] | Residual rate (%) Human plasma (human plasma) [%] | Metabolite formed (conversion by metabolism) [1, 3]
1 | CC1(C)OC(=O)c2cc3cc(NC(=O)[C@@H]4[C@H](C5CCCCC5)CCN4C(=O)[C@H]4CC[C@H](CN)CC4)ccc3n21.Cl [Example 17, (3S)-1-{[trans-4-(aminomethyl)cyclohexyl]carbonyl}-3-cyclohexyl-N-(3,3-dimethyl-1-oxo-1H-[1,3]oxazolo[3,4-a]indol-7-yl)-L-prolinamide] | converted to the compound of Example 23 | >99 | 50 | –
2 | Cl.N[C@H](CF)[C@H]1CC[C@H](C(=O)N2CC[C@@H](C3CCCCC3)[C@H]2C(=O)Nc2ccc3c(c2)cc2n3C(CF)(CF)OC2=O)CC1 [Example 6, (3S)-1-({trans-4-[(1S)-1-amino-2-fluoroethyl]cyclohexyl}carbonyl)-N-[3,3-bis(fluoromethyl)-1-oxo-1H-[1,3]oxazolo[3,4-a]indol-7-yl]-3-cyclohexyl-L-prolinamide hydrochloride] | – | 67 | 7.9 | converted to the compound of Reference Example 2-6
3 | CC1(C)OC(=O)c2cc3cc(NC(=O)[C@@H]4[C@H](C5CCCCC5)CCN4C(=O)[C@H]4CC[C@H]([C@H](N)CF)CC4)ccc3n21.Cl [Example 1, (2S,3S)-1-({trans-4-[(1S)-1-Amino-2-fluoroethyl]cyclohexyl}carbonyl)-N-(3,3-dimethyl-1-oxo-1H-[1,3]oxazolo[3,4-a]indol-7-yl)-3-cyclohexylpyrrolidine-2-carboxamide hydrochloride] | – | 87 | 29 | converted to the compound of Reference Example 2-6
4 | Cl.NC[C@H]1CC[C@H](C(=O)N2CC[C@@H](C3CCCCC3)[C@H]2C(=O)Nc2ccc3c(c2)cc2n3C(CF)(CF)OC2=O)CC1 [Example 18] | converted to the compound of Example 23 | 78 | 15 | –
5 | CC1(C)OC(=O)c2cc3cc(NC(=O)[C@@H]4[C@@H](c5ccccc5)CCN4C(=O)[C@H]4CC[C@H]([C@H](N)CF)CC4)ccc3n21.Cl [Example 20, (3R)-1-({trans-4-[(1S)-1-amino-2-fluoroethyl]cyclohexyl}carbonyl)-N-(3,3-dimethyl-1-oxo-1H-[1,3]oxazolo[3,4-a]indol-7-yl)-3-phenyl-L-prolinamide] | – | 93 | 11 | Reference Example 20-5
